According to US4335244A, “Monolactate salts of 4'-(9-acridinylamino)methanesulfon-m-anisidide” (Bristol-Myers Company, priority 1980, dated 1982):
Values after ≈ are worked out from the molar mass of the structure shown. Values joined by “and” are separate entries in the source; they are usually repeats but may differ in a detail not shown here. Identical values can stand only once. Like-named read-outs stand apart in the source and are kept apart here.

How the values were obtained:
[1] = for Time for which dilute solution remains clear (in words): dilute solutions (e.g. 3-5 mg/ml) of m-AMSA, no precipitation of salt; for Stability (in words): solid form and/or upon reconstitution with water; for Time for which reconstituted solution remained clear: room temperature
Protocol: (§1) (f) Stability: 15 mg salt was reconstituted with 10 ml sterile water.

physchem [2] = settings: water
physchem [3] = settings: sterile water
Protocol: as §1

[4] = Reconstitution with (sterile) water; type: physicochemical
Protocol: The crystalline m-AMSA monolactate hemiacetonate (10 mg) prepared according to Example 1 was dissolved in 0.5 ml sterile water in an 8.2 ml flint vial. The vial was lyophilized on a laboratory lyophilizer for 16 hours. Sterile water (0.5 ml) was added to the vial. A solution was obtained after two minutes of shaking.
2. For reconstitution, add a sufficient amount of sterile water for
injection to give a 5 mg/ml mAMSA activity solution. The reconstituted

[5] = pH of aqueous solution before lyophilization; type: physicochemical; settings: 180 mg in 24 ml sterile water
Protocol: m-AMSA DL-lactate acetone solvate (180 mg; prepared in Example 6) was dissolved in 24 ml sterile water with stirring. The resulting clear (pH 4.2) solution was passed through a 1 inch 0.45 micron Millipore filter. Two ml of the filtrate was placed in an 8.2 cc flint vial and the solution was lyophilized for 24 hours.

animal tumor systems = settings: Cain, et al., Europ. J. Cancer 10:539-549 (1974); cited from earlier work
[6] = cited from earlier work

## COc1cc(NS(C)(=O)=O)ccc1Nc1c2ccccc2nc2ccccc12 [Example 1, L(+)-Monolactate Hemiacetonate of m-AMSA]
[1]; 15 mg salt reconstituted with 10 ml sterile water
  Time for which reconstituted solution was stable: at least 24 hours
[1]
  Time for which dilute solution remains clear (in words): at least several hours
  Stability (in words): excellent stability both in solid form and upon reconstitution with water
Physchem [2]
  solubility: 5 mg/mL (≈ 12.7 mM)
Physchem [3]
  degraded at 336 h: < 6%

## COc1cc(NS(C)(=O)=O)ccc1Nc1c2ccccc2nc2ccccc12 [Example 2, Lyophilized L(+)-Monolactate Hemiacetonate of m-AMSA]
[4]; 10 mg salt lyophilized, 0.5 ml sterile water
  Shaking time to obtain a solution on reconstitution of lyophilized product: two

## COc1cc(NS(C)(=O)=O)ccc1Nc1c2ccccc2nc2ccccc12 [Example 4, m-AMSA Mono DL-Lactate Acetone Solvate]
[4]
  Concentration of solution obtained on reconstitution with water: 5000 to 7500 µg/mL
[4]; 3 minutes shaking at 75° F.
  Concentration of reconstituted aqueous solution readily obtained: 5000 µg/mL and 7500 µg/mL and 10000 µg/mL
[4]; listed as Example 5
  Concentration of solution obtained on reconstitution with water: 7500 µg/mL
[5]
  pH of solution: 4.2
[1]; 5 mg/ml, room temperature (17° C.)
  Time for which aqueous solution remained clear: at least 16 hours
[1]; 7.5 mg/ml, 17° C., listed as Example 5
  Time for which aqueous solution remained clear: at least 16 hours
[1]; 7.5 mg/ml
  Time for which reconstituted solution remained clear: 24 h
[1]; 10 mg/ml
  Time for which reconstituted solution remained clear: 24 h
[1]; 15 mg/ml
  Time for which reconstituted solution remained clear: 6 h
[1]; 5-7.5 mg/ml, 17° C.
  Time for which reconstituted solution remains clear: at least 6 hours
[1]
  Time for which dilute solution remains clear (in words): at least several hours
  Stability (in words): excellent stability both in solid form and upon reconstitution with water
Physchem [2]; room temperature
  solubility: 25 mg/mL

## COc1cc(NS(C)(=O)=O)ccc1Nc1c2ccccc2nc2ccccc12 [Example 7]
[4]
  Concentration of solution obtained on reconstitution with water: 7500 µg/mL
[1]; 7.5 mg/ml, 17° C.
  Time for which aqueous solution remained clear: at least 6 hours
[1]; 7.5 mg/ml, low speed horizontal shaker
  Time for which shaken solution was clear: up to 5 hours

## COc1cc(NS(C)(=O)=O)ccc1Nc1c2ccccc2nc2ccccc12 [Example 10, m-AMSA D(-)-Monolactate Hemiacetonate]
[1]
  Time for which dilute solution remains clear (in words): at least several hours
  Stability (in words): excellent stability both in solid form and upon reconstitution with water

## COc1cc(NS(C)(=O)=O)ccc1Nc1c2ccccc2nc2ccccc12 [Example 11]
[4]; lyophilized solid, at least 3-5 mg/ml m-AMSA activity, procedure of Example 7 'if repeated'
  Concentration of solution obtainable on reconstitution with water (m-AMSA activity): 3000 to 5000 µg/mL

## COc1cc(NS(C)(=O)=O)ccc1Nc1c2ccccc2nc2ccccc12 [m-AMSA, 4'-(9-acridinylamino)methanesulfon-m-anisidide]
[1]; chloride, sulfate and phosphate ions, insoluble salts form
  Incompatibility of solutions with ions: incompatible with chloride, sulfate and phosphate
Animal tumor systems
  Antitumor activity in animal tumor systems: significant antitumor activity in animal tumor systems
[6]
  Clinical evaluation result: very promising initial results
